Values quoted from earlier work as cited in patent US9744237B2, “Method and system for effecting changes in pigmented tissue” (priority 2009, dated 2017).

Columns and labels:
[1] = tested on: tyrosinase; details: for RAb: relative activity of tyrosinase inhibitor, RAb and F not defined in the patent
[2] = tested on: uveal melanocytes; details: for growth and melanogenesis of cultured uveal melanocytes: cAMP-deleted medium
[3] = tested on: B16 melanoma cells
[4] = tested on: HM3K0 melanoma cells

| Molecule | inhibition mechanism on tyrosinase [1] | RAb [1] [F] | other results |
| --- | --- | --- | --- |
| O=C(NCc1ccc(O)cc1O)c1cc(O)cc(O)c1 [3,5,2′,4′-Tetrahydfoxyl derivatives] |  |  | RAa ([1]; N-Benzylbenzamides, RAa and F not defined in the patent): 7.4 F |
| COc1c(O)ccc(C2=Cc3ccc(O)cc3OC2)c1OC [HagininA, 2′,3′-dimethoxy-7,4′-dihdroxyisoflav-3-ene] | Non-competitive | 10.1 |  |
| C[C@@H]1O[C@H](C[N+](C)(C)C)C[C@H]1O [Muscarine] |  |  | growth and melanogenesis of uveal melanocytes ([2]; complete medium): inhibited the growth and melanogenesis |
| O=c1cc(-c2ccc(O)cc2O)oc2cc(O)cc(O)c12 [Norartocarpetin] | Competitive | 10.4 |  |
| O=C1CC(c2ccc(O)cc2O)Oc2cc(O)cc(O)c21 (stereo not shown) [Streppogenin, 5,7,2′,4′-tetrahydroxy-flavavone] | Competitive | 13.6 |  |
| Cc1ccc(C2(C)CC(C)(C)c3ccc(C)cc3O2)c(O)c1 (stereo not shown) [Inulavosin] |  |  | effect on tyrosinase mRNA / transcription [3]: without affecting either the enzymatic activities or the transcription of tyrosinase; melanogenesis / melanin content / pigmentation [3]: reduced the melanin content |
| C=C(C)[C@H](CC=C(C)C)Cc1c(O)cc(OC)c(C(=O)/C=C/c2ccc(O)cc2O)c1O [Kuraridin] |  | 34.1 |  |
| O=c1c(-c2ccc(O)cc2)coc2cc(O)c(O)cc12 [6-Hydroxydaidzein, 6,7,4′-trihydroxyisoflavone] | Competitive | 6.0 |  |
| tunicamycin |  |  | melanogenesis / melanin content / pigmentation [3]: decreased pigmentation |
| O=c1c(-c2ccc(O)cc2)coc2c(O)c(O)ccc12 [8-Hydroxydaidzein, 7,8,4′-trihydroxyisoflavone] | Suicide substrate |  |  |
| CC(C)NCC(O)c1ccc(O)c(O)c1 (stereo not shown) [isoproterenol] |  |  | growth and melanogenesis of cultured uveal melanocytes [2]: substantially stimulated growth and melanogenesis |
| N[C@H]1C(O)O[C@H](CO)[C@@H](O)[C@@H]1O (stereo partly shown) [glucosamine] |  |  | melanogenesis / melanin content / pigmentation [3]: decreased pigmentation |
| COc1c(CC=C(C)C)c(O)cc2c1C[C@H](c1ccc(O)cc1O)CO2 [GlyasperinC] |  | 27.7 |  |
| Oc1ccc(-c2ccc3cc(O)ccc3c2)c(O)c1 [HNB, 4-(6-hydroxy-2-naphtyl)-1.3-bezendiol] |  |  | tyrosinase inhibitory activity in words [1]: the strongest tyrosinase inhibitor published until now |
| O=c1c(-c2ccc(O)cc2)coc2c(O)c(O)cc(O)c12 [8-Hydroxygenistein, 5,7,8,4′-tetrahydroxyisoflavone] | Suicide substrate |  | tyrosinase inhibitory activity in words [1]: the most potent suicide substrate of mushroom tyrosinase until now |
| CNC[C@H](O)c1ccc(O)c(O)c1 [Epinephrine] |  |  | growth and melanogenesis of cultured uveal melanocytes [2]: substantially stimulated growth and melanogenesis |
| CC(C)=CCc1c(O)ccc(/C=C/C(=O)c2ccc(O)cc2O)c1O [TMBC, 2,4,2′,4′-tetrahydroxy-3-(3-methy1-2-buteny1)-chalcone] | Competitive | 26.1 |  |
| C=CC(C)(C)c1cc(/C=C/C(=O)c2ccc(O)cc2)c(OC)cc1O [LicochalconeA] | Competitive | 5.4 |  |

| Molecule | inhibition mechanism on tyrosinase [1] | RAb [1] [F] | other results |
| --- | --- | --- | --- |
| OCc1ccc(O)cc1 [p-hydroxybenzyl alcohol] | irreversibly inhibited the enzyme |  |  |
| OC[C@H]1NC[C@@H](O)[C@@H](O)[C@@H]1O [deoxymannojirimycin] |  |  | glycosylation, transportation of tyrosinase to the melanosome and melanin synthesis [4]: showed inhibition of glycosylation, transportation of tyrosinase to the melanosome and melanin synthesis |
| O=C(/C=C/c1c(O)cc(O)cc1O)c1ccc(O)cc1O [2,4,6,2′,4′-Pentahydroxychalcone] | Competitive | 12.0 |  |
| O=C(/C=C/c1ccc(O)cc1O)c1ccc(O)cc1O [2,4,2′,4′-Tetrahydroxychalcone] | Competitive | 2.5 |  |
| Br.CCN1C[C@]2(OC(=O)c3ccccc3NC(C)=O)CC[C@H](OC)[C@@]34[C@@H]2C[C@@H]([C@@H]13)[C@@]1(O)C[C@H](OC)[C@H]2C[C@@H]4[C@]1(O)[C@H]2OC [Lappaconitine hydrobromide] |  |  | tyrosinase inhibitory activity in words [1]: activity similar to that of kojic acid |
| CC(C)(C)NCC(O)c1ccc(O)c(CO)c1 (stereo not shown) [salbutamol] |  |  | growth and melanogenesis of cultured uveal melanocytes [2]: substantially stimulated growth and melanogenesis |
| COc1cc(O)c2c(=O)cc(-c3ccc(O)cc3O)oc2c1 [Artocarpetin, 5,2′,4′-trihydroxy-7-methoxyflavone] |  | < 0.1 |  |
| CC(C)NCC(O)c1cc(O)cc(O)c1 (stereo not shown) [metaproterenol] |  |  | growth and melanogenesis of cultured uveal melanocytes [2]: substantially stimulated growth and melanogenesis |
| CC1(C)C=Cc2c(ccc3c2OC[C@@H](c2ccc(O)cc2O)C3)O1 [Glabridine] | Non-competitive | 15.2 |  |
| Clc1cccc(Cl)c1N=C1NCCN1 [clonidine] |  |  | growth and melanogenesis of cultured uveal melanocytes [2]: showed no effect |
| COCCNC(=O)COc1ccc(OCCNC[C@H](O)COc2ccccc2)cc1 [Example D7114] |  |  | growth and melanogenesis of cultured uveal melanocytes [2]: showed no effect |
| Hen egg white lysozyme (HEWL): Hen egg white lysozyme | reversibly and irreversibly mixed inhibition mechanism |  |  |
| Kuraridinol | Non-competetive |  |  |
| COc1ccc(OC)c(C(O)C(C)N)c1 (stereo not shown) [Methoxamine] |  |  | growth and melanogenesis of cultured uveal melanocytes [2]: showed no effect |
| CC1=C(O)C(=O)C(C)O1 (stereo not shown) [DMHF, 2,5-Dimethyl-4-hydroxy-3(2H)-furanone] |  |  | melanogenesis / melanin content / pigmentation [3]: inhibits a-MSH induced melanogenesis |
| CC(C)NC[C@H](O)COc1ccc(O)cc1 [prenalterol] |  |  | growth and melanogenesis of cultured uveal melanocytes [2]: showed no effect |
| TGFbeta2: Transforming growth factor-beta2, growth inhibit factor of uveal melanocytes (protein, UniProt P61812 303-414, looked up) Transforming growth factor …: ALDAAYCFRNVQDNCCLRPLYIDFKRDLGWKWIHEPKGYNANFCAGACPYLWSSDTQHSRVLSLYNTINPEASASPCCVSQDLEPLTILYYIGKTPKIEQLSNMIVKSCKCS |  |  | amount of active TGFbeta2 in aqueous humor sufficient to inhibit the growth of uveal melanocytes [2]: 0.2-0.4 ng m1-1 |
